# Reference: patent US10508104B2, “6-hydroxy-5-(phenyl/heteroarylsulfonyl)pyrimidin-4(1H)-one as APJ agonists” (Bristol-Myers Squibb Company, priority 2016, dated 2019)
# Molecular target: human APJ receptor (Homo sapiens (Human), UniProt P35414)
# Assay: Intracellular cAMP accumulation assay (APJ hcAMP, HTRF)
# Format: cell-based
# Details: human APJ, intracellular cAMP accumulation; read-out: Human APJ cAMP EC50 Potency range
# In short: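 HEK293 cells stably expressing human APJ, 5,000 per well, incubated 30 min at rt with compound, […] and 2 μM forskolin. cAMP measured by HTRF against a cAMP standard curve as inhibition of forskolin-driven production. EC50 from variable-slope sigmoidal fit.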
# human APJ receptor, sequence (P35414 whole entry): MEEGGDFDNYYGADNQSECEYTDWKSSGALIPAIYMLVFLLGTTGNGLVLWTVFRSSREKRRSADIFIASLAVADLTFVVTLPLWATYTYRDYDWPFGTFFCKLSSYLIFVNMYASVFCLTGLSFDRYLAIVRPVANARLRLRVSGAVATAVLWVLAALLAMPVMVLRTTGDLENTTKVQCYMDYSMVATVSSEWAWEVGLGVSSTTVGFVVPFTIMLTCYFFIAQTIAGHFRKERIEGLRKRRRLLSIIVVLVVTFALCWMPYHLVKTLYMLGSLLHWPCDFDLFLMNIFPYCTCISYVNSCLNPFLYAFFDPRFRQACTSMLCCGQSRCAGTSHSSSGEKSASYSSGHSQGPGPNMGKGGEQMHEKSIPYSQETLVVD
row,EC50,Compound
1,0.01 to 10 nM,"CCCCc1nc(=O)c(S(=O)(=O)c2ccc(-c3cccnc3C)cc2)c(O)n1[C@@H](COC)c1ccccc1 [Example 149, 2-butyl-6-hydroxy-1-[(1R)-2-methoxy-1-phenylethyl]-5-[4-(2-methylpyridin-3-yl)benzenesulfonyl]-1,4-dihydropyrimidin-4-one]"
2,0.01 to 10 nM,"CCCCc1nc(=O)c(S(=O)(=O)c2ccc(-c3ccc(F)nc3C)cc2)c(O)n1[C@@H](COC)c1ccccc1 [Example 150, 2-butyl-5-[4-(6-fluoro-2-methylpyridin-3-yl)benzenesulfonyl]-6-hydroxy-1-[(1R)-2-methoxy-1-phenylethyl]-1,4-dihydropyrimidin-4-one]"
3,0.01 to 10 nM,"CCCCc1nc(=O)c(S(=O)(=O)c2ccc(-c3cnc(F)cc3C)cc2)c(O)n1[C@@H](COC)c1ccccc1 [Example 152, 2-butyl-5-[4-(6-fluoro-4-methylpyridin-3-yl)benzenesulfonyl]-6-hydroxy-1-[(1R)-2-methoxy-1-phenylethyl]-1,4-dihydropyrimidin-4-one]"
4,0.01 to 10 nM,"CCCCc1nc(=O)c(S(=O)(=O)c2ccc(-c3ccnc(C)c3)cc2)c(O)n1[C@@H](COC)c1ccccc1 [Example 153, 2-butyl-6-hydroxy-1-[(1R)-2-methoxy-1-phenylethyl]-5-[4-(2-methylpyridin-4-yl)benzenesulfonyl]-1,4-dihydropyrimidin-4-one]"
5,0.01 to 10 nM,"CCCc1nc(=O)c(S(=O)(=O)c2ccc(-c3cncc(F)c3)cc2)c(O)n1[C@@H](COC)c1ccccc1 [Example 172, 5-[4-(5-fluoropyridin-3-yl)benzenesulfonyl]-6-hydroxy-1-[(1R)-2-methoxy-1-phenylethyl]-2-propyl-1,4-dihydropyrimidin-4-one]"
6,0.01 to 10 nM,"CCCc1nc(=O)c(S(=O)(=O)c2ccc(-c3cccnc3C)cc2)c(O)n1[C@@H](COC)c1ccccc1 [Example 173, 6-hydroxy-1-[(1R)-2-methoxy-1-phenylethyl]-5-[4-(2-methylpyridin-3-yl)benzenesulfonyl]-2-propyl-1,4-dihydropyrimidin-4-one]"
7,0.01 to 10 nM,"CCCc1nc(=O)c(S(=O)(=O)c2ccc(-c3ccc(F)nc3)cc2)c(O)n1[C@@H](COC)c1ccccc1 [Example 174, 5-[4-(6-fluoropyridin-3-yl)benzenesulfonyl]-6-hydroxy-1-[(1R)-2-methoxy-1-phenylethyl]-2-propyl-1,4-dihydropyrimidin-4-one]"
8,0.01 to 10 nM,"CCCc1nc(=O)c(S(=O)(=O)c2ccc(-c3ccncc3C)cc2)c(O)n1[C@@H](COC)c1ccccc1 [Example 175, 6-hydroxy-1-[(1R)-2-methoxy-1-phenylethyl]-5-[4-(3-methylpyridin-4-yl)benzenesulfonyl]-2-propyl-1,4-dihydropyrimidin-4-one]"
9,0.01 to 10 nM,"CCCc1nc(=O)c(S(=O)(=O)c2ccc(-c3ccnc(F)c3C)cc2)c(O)n1[C@@H](COC)c1ccccc1 [Example 176, 5-[4-(2-fluoro-3-methylpyridin-4-yl)benzenesulfonyl]-6-hydroxy-1-[(1R)-2-methoxy-1-phenylethyl]-2-propyl-1,4-dihydropyrimidin-4-one]"
10,0.01 to 10 nM,"CCCc1nc(=O)c(S(=O)(=O)c2ccc(-c3ccc(F)nc3C)cc2)c(O)n1[C@@H](COC)c1ccccc1 [Example 177, 5-[4-(6-fluoro-2-methylpyridin-3-yl)benzenesulfonyl]-6-hydroxy-1-[(1R)-2-methoxy-1-phenylethyl]-2-propyl-1,4-dihydropyrimidin-4-one]"

# Second part, the molecule before the results:
row,Compound,EC50
1,"CCCCc1nc(=O)c(S(=O)(=O)c2ccc(-c3cncc(C)c3)cc2)c(O)n1[C@@H](COC)c1ccccc1 [Example 151, 2-butyl-6-hydroxy-1-[(1R)-2-methoxy-1-phenylethyl]-5-[4-(5-methylpyridin-3-yl)benzenesulfonyl]-1,4-dihydropyrimidin-4-one]",0.01 to 10 nM
2,"CCCCc1nc(=O)c(S(=O)(=O)c2ccc(-c3cc(C)nc(C)c3)cc2)c(O)n1[C@@H](COC)c1ccccc1 [Example 154, 2-butyl-5-[4-(2,6-dimethylpyridin-4-yl)benzenesulfonyl]-6-hydroxy-1-[(1R)-2-methoxy-1-phenylethyl]-1,4-dihydropyrimidin-4-one]",10 to 100 nM
3,"CCCCc1nc(=O)c(S(=O)(=O)c2ccc(-c3ccncc3C)cc2)c(O)n1[C@H]1CCc2ccccc21 [Example 155, 2-butyl-1-[(1S)-2,3-dihydro-1H-inden-1-yl]-6-hydroxy-5-[4-(3-methylpyridin-4-yl)benzenesulfonyl]-1,4-dihydropyrimidin-4-one]",0.01 to 10 nM
4,"CCCCc1nc(=O)c(S(=O)(=O)c2ccc(-c3ccnc(C)c3)cc2)c(O)n1[C@H]1CCc2ccccc21 [Example 156, 2-butyl-1-[(1S)-2,3-dihydro-1H-inden-1-yl]-6-hydroxy-5-[4-(2-methylpyridin-4-yl)benzenesulfonyl]-1,4-dihydropyrimidin-4-one]",100 to 300 nM
5,"CCCCc1nc(=O)c(S(=O)(=O)c2ccc(-c3cccnc3C)cc2)c(O)n1[C@H]1CCc2ccccc21 [Example 157, 2-butyl-1-[(1S)-2,3-dihydro-1H-inden-1-yl]-6-hydroxy-5-[4-(2-methylpyridin-3-yl)benzenesulfonyl]-1,4-dihydropyrimidin-4-one]",0.01 to 10 nM
6,"CCCCc1nc(=O)c(S(=O)(=O)c2ccc(-c3ccncc3C)cc2)c(O)n1[C@H](C)c1cccc(C#N)c1 [Example 158, 3-[(1R)-1-{2-butyl-6-hydroxy-5-[4-(3-methylpyridin-4-yl)benzenesulfonyl]-4-oxo-1,4-dihydropyrimidin-1-yl}ethyl]benzonitrile]",0.01 to 10 nM
7,"CCCCc1nc(=O)c(S(=O)(=O)c2ccc(-c3ccnc(F)c3C)cc2)c(O)n1[C@H](C)c1cccc(C#N)c1 [Example 159, 3-[(1R)-1-{2-butyl-5-[4-(2-fluoro-3-methylpyridin-4-yl)benzenesulfonyl]-6-hydroxy-4-oxo-1,4-dihydropyrimidin-1-yl}ethyl]benzonitrile]",0.01 to 10 nM
8,"CCCCc1nc(=O)c(S(=O)(=O)c2ccc(-c3cncc(C)c3)cc2)c(O)n1[C@H]1CCc2ccccc21 [Example 160, 2-butyl-1-[(1S)-2,3-dihydro-1H-inden-1-yl]-6-hydroxy-5-[4-(5-methylpyridin-3-yl)benzenesulfonyl]-1,4-dihydropyrimidin-4-one]",100 to 300 nM
9,"CCCCc1nc(=O)c(S(=O)(=O)c2ccc(-c3cc(C)nc(C)c3)cc2)c(O)n1[C@H]1CCc2ccccc21 [Example 161, 2-butyl-1-[(1S)-2,3-dihydro-1H-inden-1-yl]-5-[4-(2,6-dimethylpyridin-4-yl)benzenesulfonyl]-6-hydroxy-1,4-dihydropyrimidin-4-one]",100 to 300 nM
10,"CCCCc1nc(=O)c(S(=O)(=O)c2ccc(-c3cncc(F)c3)cc2)c(O)n1[C@H](C)c1cccc(C#N)c1 [Example 162, 3-[(1R)-1-{2-butyl-5-[4-(5-fluoropyridin-3-yl)benzenesulfonyl]-6-hydroxy-4-oxo-1,4-dihydropyrimidin-1-yl}ethyl]benzonitrile]",10 to 100 nM
11,"CCCCc1nc(=O)c(S(=O)(=O)c2ccc(-c3ccc(F)nc3)cc2)c(O)n1[C@H]1CCc2ccccc21 [Example 163, 2-butyl-1-[(1S)-2,3-dihydro-1H-inden-1-yl]-5-[4-(6-fluoropyridin-3-yl)benzenesulfonyl]-6-hydroxy-1,4-dihydropyrimidin-4-one]",0.01 to 10 nM
12,"CCCCc1nc(=O)c(S(=O)(=O)c2ccc(-c3ccnc(F)c3C)cc2)c(O)n1[C@H]1CCc2ccccc21 [Example 164, 2-butyl-1-[(1S)-2,3-dihydro-1H-inden-1-yl]-5-[4-(2-fluoro-3-methylpyridin-4-yl)benzenesulfonyl]-6-hydroxy-1,4-dihydropyrimidin-4-one]",0.01 to 10 nM
13,"CCCCc1nc(=O)c(S(=O)(=O)c2ccc(-c3cccnc3C)cc2)c(O)n1[C@@H](CC)c1cccc(OC)c1 [Example 165, 2-butyl-6-hydroxy-1-[(1S)-1-(3-methoxyphenyl)propyl]-5-[4-(2-methylpyridin-3-yl)benzenesulfonyl]-1,4-dihydropyrimidin-4-one]",0.01 to 10 nM
14,"CCCCc1nc(=O)c(S(=O)(=O)c2ccc(-c3ccc(F)nc3)cc2)c(O)n1[C@H](C)c1cccc(C#N)c1 [Example 166, 3-[(1R)-1-{2-butyl-5-[4-(6-fluoropyridin-3-yl)benzenesulfonyl]-6-hydroxy-4-oxo-1,4-dihydropyrimidin-1-yl}ethyl]benzonitrile]",10 to 100 nM
15,"CCCCc1nc(=O)c(S(=O)(=O)c2ccc(-c3ccc(OC)nc3C)cc2)c(O)n1[C@H]1CCc2ccccc21 [Example 167, 2-butyl-1-[(1S)-2,3-dihydro-1H-inden-1-yl]-6-hydroxy-5-[4-(6-methoxy-2-methylpyridin-3-yl)benzenesulfonyl]-1,4-dihydropyrimidin-4-one]",0.01 to 10 nM
16,"CCCCc1nc(=O)c(S(=O)(=O)c2ccc(-c3cncc(F)c3)cc2)c(O)n1[C@H]1CCc2ccccc21 [Example 168, 2-butyl-1-[(1S)-2,3-dihydro-1H-inden-1-yl]-5-[4-(5-fluoropyridin-3-yl)benzenesulfonyl]-6-hydroxy-1,4-dihydropyrimidin-4-one]",0.01 to 10 nM
17,"CCCCc1nc(=O)c(S(=O)(=O)c2ccc(-c3ccnc(F)c3C)cc2)c(O)n1[C@@H](CC)c1cccc(OC)c1 [Example 169, 2-butyl-5-[4-(2-fluoro-3-methylpyridin-4-yl)benzenesulfonyl]-6-hydroxy-1-[(1S)-1-(3-methoxyphenyl)propyl]-1,4-dihydropyrimidin-4-one]",0.01 to 10 nM
18,"CCCCc1nc(=O)c(S(=O)(=O)c2ccc(-c3cnc(F)cc3C)cc2)c(O)n1[C@H]1CCc2ccccc21 [Example 170, 2-butyl-1-[(1S)-2,3-dihydro-1H-inden-1-yl]-5-[4-(6-fluoro-4-methylpyridin-3-yl)benzenesulfonyl]-6-hydroxy-1,4-dihydropyrimidin-4-one]",0.01 to 10 nM
19,"CCCCc1nc(=O)c(S(=O)(=O)c2ccc(-c3ccc(F)nc3C)cc2)c(O)n1[C@H]1CCc2ccccc21 [Example 171, 2-butyl-1-[(1S)-2,3-dihydro-1H-inden-1-yl]-5-[4-(6-fluoro-2-methylpyridin-3-yl)benzenesulfonyl]-6-hydroxy-1,4-dihydropyrimidin-4-one]",0.01 to 10 nM
